Experiment [1] concerns human smooth muscle cells. As to conditions: 2.5 μM atorvastatin in medium (Dubuis et al., 2013); cited from earlier work.
For experiment [2], the system named is smooth muscle cells. As to conditions: atorvastatin concentration as low as 0.1 μM (Petersen et al., 2013; Baetta et al., 1997); cited from earlier work.
For experiment [3], the system named is Human coronary artery smooth muscle cells (HCASMC). Put plainly: MTT cell metabolism assay on nanocoated devices. As to conditions: PDE31 coated, dose densities up to 100 μg/cm^2.

Regarding `CC(C)c1c(C(=O)Nc2ccccc2)c(-c2ccccc2)c(-c2ccc(F)cc2)n1CC[C@@H](O)C[C@@H](O)CC(=O)[O-].CC(C)c1c(C(=O)Nc2ccccc2)c(-c2ccccc2)c(-c2ccc(F)cc2)n1CC[C@@H](O)C[C@@H](O)CC(=O)[O-].[Ca+2]` [atorvastatin, Atorvastatin calcium], in experiment [1], the “viability of human smooth muscle cells” value is recorded as “does not suppress the viability”. Moreover, the “growth of smooth muscle cells” value in experiment [2] is recorded as “effective in suppressing the growth”. Further, the “MTT activity of HCASMC with atorvastatin release” value in experiment [3] was “no significant difference”.
